Experimental data: PubChem BioAssay (NCI)
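Results reflect a 48-hour exposure of cells in 96-well plates to compound at five concentrations. GI50 marks 50% less growth. TGI marks complete inhibition of growth.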

How the values were obtained:
Experiment in all cases: NCI tumour cell line growth inhibition, 48 h
HCT-116 colon = tested on: HCT-116 colon
HT29 colon = tested on: HT29 colon
MALME-3M melanoma = tested on: MALME-3M melanoma
EKVX NSCLC = tested on: EKVX NSCLC
HS 578T breast = tested on: HS 578T breast
A549 NSCLC = tested on: A549 NSCLC
SF-268 CNS = tested on: SF-268 CNS
UACC-62 melanoma = tested on: UACC-62 melanoma
HCC-2998 colon = tested on: HCC-2998 colon
A498 renal = tested on: A498 renal
SK-MEL-2 melanoma = tested on: SK-MEL-2 melanoma
SF-539 CNS = tested on: SF-539 CNS
CAKI-1 renal = tested on: CAKI-1 renal
HOP-92 NSCLC = tested on: HOP-92 NSCLC
TK-10 renal = tested on: TK-10 renal
SK-MEL-5 melanoma = tested on: SK-MEL-5 melanoma
LOX IMVI melanoma = tested on: LOX IMVI melanoma
HCT-15 colon = tested on: HCT-15 colon
OVCAR-4 ovarian = tested on: OVCAR-4 ovarian
SK-MEL-28 melanoma = tested on: SK-MEL-28 melanoma
KM12 colon = tested on: KM12 colon
SNB-75 CNS = tested on: SNB-75 CNS
T-47D breast = tested on: T-47D breast
OVCAR-3 ovarian = tested on: OVCAR-3 ovarian
NCI-H522 lung = tested on: NCI-H522 lung
MDA-MB-231 breast = tested on: MDA-MB-231 breast
UO-31 renal = tested on: UO-31 renal
COLO 205 colon = tested on: COLO 205 colon
M14 melanoma = tested on: M14 melanoma
MDA-MB-435 = tested on: MDA-MB-435
BT-549 breast = tested on: BT-549 breast
ACHN renal = tested on: ACHN renal
OVCAR-5 ovarian = tested on: OVCAR-5 ovarian
786-0 renal = tested on: 786-0 renal
DU-145 prostate = tested on: DU-145 prostate
SK-OV-3 ovarian = tested on: SK-OV-3 ovarian
UACC-257 melanoma = tested on: UACC-257 melanoma
PC-3 prostate = tested on: PC-3 prostate
SW-620 colon = tested on: SW-620 colon
RXF 393 renal = tested on: RXF 393 renal
NCI-H460 lung = tested on: NCI-H460 lung
HOP-62 NSCLC = tested on: HOP-62 NSCLC
U251 CNS = tested on: U251 CNS
MCF7 breast = tested on: MCF7 breast
SF-295 CNS = tested on: SF-295 CNS
SR leukemia = tested on: SR leukemia

Question: With `CCNCCNc1cc(-c2ccc(Cl)c(Cl)c2)c(C#N)c2nc3ccccc3n12` as the compound, how does the GI50 (HCT-116 colon) read?
Answer: Its GI50 is 278 nM.

Question: What about the TGI (HCT-116 colon) of the same compound?
Answer: Its TGI is 1080 nM.

Question: And the GI50 (HT29 colon)?
Answer: The GI50 was 369 nM.

Question: What about the TGI (HT29 colon) of the same compound?
Answer: The TGI was 1420 nM.

Question: What about the GI50 (MALME-3M melanoma) of the same compound?
Answer: Its GI50 is 1760 nM.

Question: And the TGI (MALME-3M melanoma)?
Answer: Its TGI is 3410 nM.

Question: What about the GI50 (EKVX NSCLC) of the same compound?
Answer: The GI50 was 1750 nM.

Question: And the TGI (EKVX NSCLC)?
Answer: The TGI was 3330 nM.

Question: And the GI50 (HS 578T breast)?
Answer: Its GI50 is 1900 nM.

Question: What about the TGI (HS 578T breast) of the same compound?
Answer: The TGI was 4430 nM.

Question: And the GI50 (A549 NSCLC)?
Answer: Its GI50 is 1430 nM.

Question: And the TGI (A549 NSCLC)?
Answer: The TGI was 3010 nM.

Question: And the GI50 (SF-268 CNS)?
Answer: Its GI50 is 1710 nM.

Question: What about the TGI (SF-268 CNS) of the same compound?
Answer: The TGI was 3330 nM.

Question: What about the GI50 (UACC-62 melanoma) of the same compound?
Answer: Its GI50 is 1820 nM.

Question: What about the TGI (UACC-62 melanoma) of the same compound?
Answer: Its TGI is 3560 nM.

Question: And the GI50 (HCC-2998 colon)?
Answer: Its GI50 is 1690 nM.

Question: And the TGI (HCC-2998 colon)?
Answer: The TGI was 3210 nM.

Question: What about the GI50 (A498 renal) of the same compound?
Answer: Its GI50 is 1380 nM.

Question: What about the TGI (A498 renal) of the same compound?
Answer: The TGI was 2880 nM.

Question: And the GI50 (SK-MEL-2 melanoma)?
Answer: Its GI50 is 1580 nM.

Question: And the TGI (SK-MEL-2 melanoma)?
Answer: Its TGI is 3070 nM.

Question: And the GI50 (SF-539 CNS)?
Answer: Its GI50 is 224 nM.

Question: And the TGI (SF-539 CNS)?
Answer: Its TGI is 580 nM.

Question: And the GI50 (CAKI-1 renal)?
Answer: The GI50 was 1560 nM.

Question: And the TGI (CAKI-1 renal)?
Answer: Its TGI is 2900 nM.

Question: What about the GI50 (HOP-92 NSCLC) of the same compound?
Answer: Its GI50 is 1670 nM.

Question: What about the TGI (HOP-92 NSCLC) of the same compound?
Answer: The TGI was 3280 nM.

Question: What about the GI50 (TK-10 renal) of the same compound?
Answer: Its GI50 is 1690 nM.

Question: And the TGI (TK-10 renal)?
Answer: The TGI was 3110 nM.

Question: And the GI50 (SK-MEL-5 melanoma)?
Answer: The GI50 was 1710 nM.

Question: And the TGI (SK-MEL-5 melanoma)?
Answer: The TGI was 3120 nM.

Question: And the GI50 (LOX IMVI melanoma)?
Answer: The GI50 was 1210 nM.

Question: And the TGI (LOX IMVI melanoma)?
Answer: The TGI was 2530 nM.

Question: What about the GI50 (HCT-15 colon) of the same compound?
Answer: The GI50 was 629 nM.

Question: What about the TGI (HCT-15 colon) of the same compound?
Answer: Its TGI is 1920 nM.

Question: And the GI50 (OVCAR-4 ovarian)?
Answer: Its GI50 is 1230 nM.

Question: What about the TGI (OVCAR-4 ovarian) of the same compound?
Answer: Its TGI is 2530 nM.

Question: What about the GI50 (SK-MEL-28 melanoma) of the same compound?
Answer: Its GI50 is 1900 nM.

Question: What about the TGI (SK-MEL-28 melanoma) of the same compound?
Answer: Its TGI is 3540 nM.

Question: And the GI50 (KM12 colon)?
Answer: The GI50 was 1600 nM.

Question: And the TGI (KM12 colon)?
Answer: Its TGI is 3150 nM.

Question: What about the GI50 (SNB-75 CNS) of the same compound?
Answer: The GI50 was 1460 nM.

Question: And the TGI (SNB-75 CNS)?
Answer: The TGI was 2960 nM.

Question: And the GI50 (T-47D breast)?
Answer: Its GI50 is 1430 nM.

Question: And the TGI (T-47D breast)?
Answer: The TGI was 3200 nM.

Question: What about the GI50 (OVCAR-3 ovarian) of the same compound?
Answer: Its GI50 is 248 nM.

Question: And the TGI (OVCAR-3 ovarian)?
Answer: The TGI was 580 nM.

Question: What about the GI50 (NCI-H522 lung) of the same compound?
Answer: The GI50 was 1320 nM.

Question: What about the TGI (NCI-H522 lung) of the same compound?
Answer: The TGI was 2800 nM.

Question: And the GI50 (MDA-MB-231 breast)?
Answer: The GI50 was 1210 nM.

Question: And the TGI (MDA-MB-231 breast)?
Answer: Its TGI is 2710 nM.

Question: What about the GI50 (UO-31 renal) of the same compound?
Answer: Its GI50 is 1600 nM.

Question: What about the TGI (UO-31 renal) of the same compound?
Answer: The TGI was 3120 nM.

Question: What about the GI50 (COLO 205 colon) of the same compound?
Answer: The GI50 was 421 nM.

Question: And the TGI (COLO 205 colon)?
Answer: Its TGI is 1630 nM.

Question: What about the GI50 (M14 melanoma) of the same compound?
Answer: The GI50 was 1720 nM.

Question: And the TGI (M14 melanoma)?
Answer: The TGI was 3240 nM.

Question: And the GI50 (MDA-MB-435)?
Answer: The GI50 was 1700 nM.

Question: And the TGI (MDA-MB-435)?
Answer: Its TGI is 3140 nM.

Question: What about the GI50 (BT-549 breast) of the same compound?
Answer: The GI50 was 1540 nM.

Question: What about the TGI (BT-549 breast) of the same compound?
Answer: The TGI was 2900 nM.

Question: What about the GI50 (ACHN renal) of the same compound?
Answer: The GI50 was 1390 nM.

Question: And the TGI (ACHN renal)?
Answer: The TGI was 2870 nM.

Question: What about the GI50 (OVCAR-5 ovarian) of the same compound?
Answer: The GI50 was 1870 nM.

Question: And the TGI (OVCAR-5 ovarian)?
Answer: Its TGI is 3550 nM.

Question: And the GI50 (786-0 renal)?
Answer: Its GI50 is 1660 nM.

Question: And the TGI (786-0 renal)?
Answer: The TGI was 3180 nM.

Question: What about the GI50 (DU-145 prostate) of the same compound?
Answer: Its GI50 is 1440 nM.

Question: And the TGI (DU-145 prostate)?
Answer: Its TGI is 2760 nM.

Question: And the GI50 (SK-OV-3 ovarian)?
Answer: Its GI50 is 1790 nM.

Question: And the TGI (SK-OV-3 ovarian)?
Answer: Its TGI is 3230 nM.

Question: What about the GI50 (UACC-257 melanoma) of the same compound?
Answer: The GI50 was 1890 nM.

Question: What about the TGI (UACC-257 melanoma) of the same compound?
Answer: Its TGI is 3520 nM.

Question: And the GI50 (PC-3 prostate)?
Answer: Its GI50 is 1660 nM.

Question: And the TGI (PC-3 prostate)?
Answer: The TGI was 3190 nM.

Question: What about the GI50 (SW-620 colon) of the same compound?
Answer: The GI50 was 578 nM.

Question: And the TGI (SW-620 colon)?
Answer: Its TGI is 2070 nM.

Question: What about the GI50 (RXF 393 renal) of the same compound?
Answer: The GI50 was 1500 nM.

Question: What about the TGI (RXF 393 renal) of the same compound?
Answer: The TGI was 2940 nM.

Question: And the GI50 (NCI-H460 lung)?
Answer: Its GI50 is 485 nM.

Question: What about the TGI (NCI-H460 lung) of the same compound?
Answer: Its TGI is 1910 nM.

Question: And the GI50 (HOP-62 NSCLC)?
Answer: The GI50 was 1620 nM.

Question: What about the TGI (HOP-62 NSCLC) of the same compound?
Answer: Its TGI is 3180 nM.

Question: And the GI50 (U251 CNS)?
Answer: The GI50 was 757 nM.

Question: What about the TGI (U251 CNS) of the same compound?
Answer: The TGI was 2150 nM.

Question: What about the GI50 (MCF7 breast) of the same compound?
Answer: The GI50 was 1010 nM.

Question: And the TGI (MCF7 breast)?
Answer: Its TGI is 2460 nM.

Question: And the GI50 (SF-295 CNS)?
Answer: The GI50 was 1810 nM.

Question: What about the TGI (SF-295 CNS) of the same compound?
Answer: Its TGI is 3240 nM.

Question: And the GI50 (SR leukemia)?
Answer: Its GI50 is 287 nM.

Question: What about the TGI (SR leukemia) of the same compound?
Answer: The TGI was over 100000 nM.
